Several values for one entry are separate records, joined by “and”; a condition that tells them apart may be missing. Identical values can stand only once. Entries after “also recorded” stand apart in the source; their conditions may differ.
Columns and labels:
streptavidin (SAv) = streptavidin (SAv) (Streptomyces avidinii, UniProt P22629); assay: SAv sensing: fluorescence response of TOPI sensors; format: binding; conditions: 100 nM sensor, 90 nM SAv
Experimental: (§1) The most efficient TOPI sensors were identified (FIG. 12) by measuring the fluorescence of the six sensors (100 nM) in the absence and presence of their targets (90 nM) (FIG. 13).
(§2) Fluorescence values were recorded immediately after addition of the proteins (FIGS. 12d and 13b).

avidin (Av) = avidin (Av) (Gallus gallus, UniProt P02701); assay: Av sensing: fluorescence response of TOPI sensors; format: binding; conditions: 100 nM sensor, 90 nM Av; for enhancement in fluorescence emission upon addition of Av: phosphate buffer 15 mM pH 7.3
Chain of avidin (Av) (P02701 25-152): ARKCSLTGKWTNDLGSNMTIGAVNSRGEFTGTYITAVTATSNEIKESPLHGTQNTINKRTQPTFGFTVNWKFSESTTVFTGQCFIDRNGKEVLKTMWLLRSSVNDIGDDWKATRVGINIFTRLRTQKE
Experimental: as §1, §2

dsDNA = assay: Fluorescence response to double-stranded DNA; format: binding; conditions: for fluorescence response to addition of dsDNA (FIG. 21e): 100 nM sensor or TO, 400 nM dsDNA, phosphate buffer 5 mM pH 6.5
Experimental: Different 10 derivatives (Table 3) were incubated with increasing concentrations of double-stranded DNA and compared their fluorescence emission prior to and after their incubation in PBS buffer, pH=6.5 (FIG. 9).

healthy MCF-10A cells = assay: Live cell fluorescence imaging, MCF-10A; format: cell-based; conditions: 2 μM
GST-P1-1 [1] = target: T1, GST-P1-1 (Homo sapiens, UniProt P09211); assay: Fluorescence binding study, dissociation constant with GST-P1-1; conditions: fluorescence titration, phosphate buffer 5 mM pH 6.5; read-out: approximate dissociation constant Kd, GST-P1-1
T1 construct: purchased Oxford Biomedical Research (a second source is given: Israel Structural Proteomics Center, recombinant)
T1 sequence (P09211 2-210 limits assumed): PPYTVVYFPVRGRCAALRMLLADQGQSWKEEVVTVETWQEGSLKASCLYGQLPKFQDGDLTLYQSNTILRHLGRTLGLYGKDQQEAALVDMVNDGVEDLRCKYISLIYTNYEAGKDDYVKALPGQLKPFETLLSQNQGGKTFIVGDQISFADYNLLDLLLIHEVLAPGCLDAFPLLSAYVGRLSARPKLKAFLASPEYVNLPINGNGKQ
Experimental: The approximate dissociation constants were determined for GST-M1-1 and GST-P1-1. For these experiments, the concentration of the sensor was chosen according to the enzymatic assays (Ki values, FIG. 18, 19). It was chosen to be lower than the Ki (expected Kd), but such that would also generate a detectable and reproducible emission signal in the plate reader. […] The data were analyzed using Graphpad Prism 6.0 and fitted to the equation: Y=Bmax·X/(kd+X) where Bmax is the maximum binding and X is the concentration of protein.

[2] = tested on: MDA-MB-231 cancer cells, overexpressing GST-P1-1; assay: Live cell fluorescence imaging, MDA-MB-231; format: cell-based; conditions: 2 μM, 15 minutes at 37° C.
Experimental: GST-P1-1 is a cytosolic protein, whereas DNA is located in the nucleouse.
MDA-MB-231 cells were maintained in RPMI supplemented with 10% FBS, L-glutamine, and antibiotics. […] Cell images were analyzed using imageJ.

GST-P1-1 [3] = target: T1, GST-P1-1; assay: GST sensing: fluorescence response to GST-P1-1; format: binding; conditions: 100 nM sensor
Experimental: as §1
(§3) Based on the obtained binding constants (FIG. 15), a concentration of 100 nM sensor was chosen for GST sensing. This concentration should ensure strong binding and a high S/N ratio.

AChE [4] = target: T2, AChE (Tetronarce californica, UniProt P04058); assay: AChE kinetic measurements (Ellman method); format: biochemical; conditions: for inhibition of AChE activity: 8 pM AChE, sensor 36 50 nM, sensor 37 2 μM
T2 construct: gift from Prof; Israel Silman Lab (Weizmann Institute of Science)
T2 sequence (P04058 22-564): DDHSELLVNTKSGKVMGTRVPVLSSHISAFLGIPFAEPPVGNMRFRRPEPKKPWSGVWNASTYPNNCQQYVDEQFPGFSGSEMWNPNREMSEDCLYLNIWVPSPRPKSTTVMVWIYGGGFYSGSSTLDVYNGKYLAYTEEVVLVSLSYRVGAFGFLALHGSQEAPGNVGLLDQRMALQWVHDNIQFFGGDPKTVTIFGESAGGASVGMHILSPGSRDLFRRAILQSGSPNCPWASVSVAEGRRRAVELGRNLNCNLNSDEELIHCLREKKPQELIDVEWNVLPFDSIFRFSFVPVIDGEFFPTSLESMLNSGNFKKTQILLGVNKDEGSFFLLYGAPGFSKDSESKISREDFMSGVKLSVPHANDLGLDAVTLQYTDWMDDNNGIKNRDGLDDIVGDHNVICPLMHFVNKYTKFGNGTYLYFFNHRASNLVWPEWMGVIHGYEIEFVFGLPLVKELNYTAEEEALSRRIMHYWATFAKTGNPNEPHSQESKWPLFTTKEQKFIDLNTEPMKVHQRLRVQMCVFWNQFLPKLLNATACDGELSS
Experimental: The AChE activity was measured spectrophotometrically using 5,5′-dithiobis(2-nitrobenzoic acid) (DTNB) and acetylthiocholine iodide as substrates, in phosphate buffer (50 mM, pH 8.0). […] The final concentrations of AChE, DTNB, and acetylthiocholine iodide were 8 pM, 0.4 mM, and 0.4 mM, respectively.

AChE [5] = target: T2, AChE; assay: AChE sensing: fluorescence response of TOPI sensors; format: binding; conditions: 100 nM sensor, 90 nM AChE
Experimental: Fluorescence values were recorded immediately after addition of the proteins (FIGS. 12a and 13a).

GST-M1-1 [6] = target: T3, GST-M1-1 (Homo sapiens, UniProt P09488); assay: Displacement (inhibitor screening) assay with sensor 14-GST-M1-1 complex; format: binding; conditions: 50 μM drug, sensor 14 90 nM, GST M1-1 90 nM
T3 construct: purchased Oxford Biomedical Research (a second source is given: Israel Structural Proteomics Center, recombinant)
T3 sequence (P09488 2-218 limits assumed): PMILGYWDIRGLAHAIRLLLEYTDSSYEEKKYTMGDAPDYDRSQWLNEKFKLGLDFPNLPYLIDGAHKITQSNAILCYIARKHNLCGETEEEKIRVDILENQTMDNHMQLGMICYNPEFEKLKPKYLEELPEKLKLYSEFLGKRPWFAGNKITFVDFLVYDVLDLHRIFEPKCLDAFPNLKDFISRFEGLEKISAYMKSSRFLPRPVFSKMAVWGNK
Experimental: A possible advantage of such systems, however, is that they abrogate the need for using labelled substrates and following the reaction kinetics. Such sensors could, therefore, complement other label-free enzyme assays that rely on indicator displacement mechanisms.
The sensor 14-GST-M1-1 complex was treated with a random library of known drugs.

GST-A2-2 [7] = target: T4, GST-A2-2 (Homo sapiens, UniProt P09210); assay: GST kinetic measurements and inhibitory constants (CDNB/GSH), GST-A2-2; format: biochemical; conditions: Morrison fit; GSH 3 mM, CDNB 1.5 mM; read-out: approximate inhibition constant Ki, GST-A2-2
T4 construct: purchased Oxford Biomedical Research (a second source is given: Israel Structural Proteomics Center, recombinant)
T4 sequence (P09210 2-222 limits assumed): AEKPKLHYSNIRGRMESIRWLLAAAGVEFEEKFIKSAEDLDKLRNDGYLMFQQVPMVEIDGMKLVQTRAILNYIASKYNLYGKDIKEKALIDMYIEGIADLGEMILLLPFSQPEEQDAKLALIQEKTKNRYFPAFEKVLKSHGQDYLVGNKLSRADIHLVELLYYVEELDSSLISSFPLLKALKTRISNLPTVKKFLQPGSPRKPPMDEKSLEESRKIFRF
Experimental: (§4) (FIGS. 16- and 19). The concentrations of different GSTs, GSH, and CDNB were 20 nM, 350 μM, and 700 μM, respectively. The GST activity was measured spectrophotometrically using chloro-2,4-dinitrobenzene (CDNB) and GSH as substrates, in phosphate buffer (10 mM, pH 6.5). In a typical experiment, GST and sensors 14 or 140 were incubated for 10 min at 25° C. and then GSH and CDNB were subsequently added. The formation of S-(2,4-dinitrophenyl)-glutathione was monitored using the microplate reader at λ=340 nm. […] The concentrations of GSH and CDNB were 3 mM and 1.5 mM, respectively. The Km values were determined using 20 nM of each GST isoform, 3 mM GSH, and variable CDNB concentrations (50 μM-2 mM). Data were fit to the Michaelis-Menten equation using Sigmaplot version 12.0 statistical software (Systat) to obtain the Km values.
(§5) The data were analyzed using Graphpad Prism 6.0 and fitted to the Morrison equation for tight binding substrates (FIG. 18 and FIG. 19(b,c)).
(§6) [formula] where Y is the enzyme activity, X is different concentrations of inhibitor (compound 14 or 140), E is the enzyme concentration, S is the concentration of substrate, Km is the Michaelis-Menten constant determined in an experiment without inhibitor, and V0 is the initial velocity.

GST-M1-1 [8] = target: T3, GST-M1-1; assay: GST sensing: fluorescence response to GST-M1-1; format: binding; conditions: 100 nM sensor
Experimental: as §1, §3
Two different mixtures of GST isoforms were prepared: one that contained all the GST isoforms (20 nM of each GST, in total 160 nM) (A1-1k2-2, P1-1, M1-1, T1-1, O1-1, Z1-1, and K1-1) and the second mixture contained all the GST isoforms except GST-M1-1.

GST-P1-1 [9] = target: T1, GST-P1-1; assay: GST kinetic measurements and inhibitory constants (CDNB/GSH), GST-P1-1; format: biochemical; conditions: Morrison fit; GSH 3 mM, CDNB 1.5 mM; read-out: approximate inhibition constant Ki, GST-P1-1
Experimental: as §4, §5, §6

GST-A1-1 = target: T5, GST-A1-1 (Homo sapiens, UniProt P08263); assay: GST sensing: fluorescence response to GST-A1-1; format: binding; conditions: 100 nM sensor, 90 nM isozyme
T5 construct: purchased Oxford Biomedical Research (a second source is given: Israel Structural Proteomics Center, recombinant)
T5 sequence (P08263 2-222 limits assumed): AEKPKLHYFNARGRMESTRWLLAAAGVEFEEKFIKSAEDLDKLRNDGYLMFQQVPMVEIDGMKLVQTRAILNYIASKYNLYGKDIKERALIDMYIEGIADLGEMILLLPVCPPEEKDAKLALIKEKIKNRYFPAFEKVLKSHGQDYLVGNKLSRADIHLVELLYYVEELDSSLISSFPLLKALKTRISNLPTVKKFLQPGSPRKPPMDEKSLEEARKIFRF
Experimental: as §1, §3

GST-A2-2 [10] = target: T4, GST-A2-2; assay: GST sensing: fluorescence response to GST-A2-2; format: binding; conditions: 100 nM sensor, 90 nM isozyme
Experimental: as §1, §3

Chain of streptavidin (SAv) (P22629 25-183): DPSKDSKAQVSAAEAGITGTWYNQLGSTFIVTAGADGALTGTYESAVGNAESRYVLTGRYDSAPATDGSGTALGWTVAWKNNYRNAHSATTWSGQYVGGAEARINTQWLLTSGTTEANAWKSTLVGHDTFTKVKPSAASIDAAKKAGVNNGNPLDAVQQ

O=C(CCCCC1SCC2NC(=O)NC21)NCCOCCOCCNC(=O)CCN1C=C/C(=C\c2sc3ccccc3[n+]2CCC(=O)NCCOCCOCCNC(=O)CCCCC2SCC3NC(=O)NC32)c2ccccc21.[I-] (centres unmarked) [sensor 34]
fluorescence response to SAv (streptavidin (SAv)): weakly; also recorded: hardly detected | fluorescence response to Av (avidin (Av)): strongly | enhancement in fluorescence emission upon addition of Av (avidin (Av)): 16 fold | fluorescence response to addition of dsDNA (FIG. 21e) (dsDNA): negligible fluorescence responses

O=C(CCCCC1SCC2NC(=O)NC21)NCCNC(=O)CCN1C=C/C(=C\c2sc3ccccc3[n+]2CCC(=O)NCCNC(=O)CCCCC2SCC3NC(=O)NC32)c2ccccc21.[I-] (centres unmarked) [sensor 35]
fluorescence response to SAv (streptavidin (SAv)): weakly; also recorded: hardly detected | fluorescence response to Av (avidin (Av)): strongly | enhancement in fluorescence emission upon addition of Av (avidin (Av)): 7 fold

C=C(CC)C(=O)c1ccc(OCC(=O)NCCNC(=O)CCN2C=C/C(=C\c3sc4ccccc4[n+]3CCC(=O)NCCNC(=O)COc3ccc(C(=O)C(=C)CC)c(Cl)c3Cl)c3ccccc32)c(Cl)c1Cl [sensor 140, (E)-3-(3-((2-(2-(2,3-dichloro-4-(2-methylenebutanoyl)phenoxy)acetamido)ethyl)amino)-3-oxopropyl)-2-((1-(3-((2-(2-(2,3-dichloro-4-(2-methylenebutanoyl)phenoxy)acetamido)ethyl)amino)-3-oxopropyl)quinolin-4(1H)-ylidene)methyl)benzoidithiazol-3-ium iodide]
emission signal in MCF-10A cells (healthy MCF-10A cells): much weaker emission signal | fluorescence response to addition of dsDNA (FIG. 21e) (dsDNA): negligible fluorescence responses | Kd (GST-P1-1 [1]): 29 nM | localization of fluorescence in live MDA-MB-231 cells [2]: distributed within the cell | turn-on fluorescence signal in the presence of GST-P1-1 (GST-P1-1 [3]; 90 nM GST-P1-1, after 30 min incubation): 33 fold

O=C(CCN1C=C/C(=C\c2sc3ccccc3[n+]2CCC(=O)NCCCCCCNc2c3c(nc4ccccc24)CCCC3)c2ccccc21)NCCCCCCNc1c2c(nc3ccccc13)CCCC2.[I-] [sensor 36]
inhibition of AChE activity (AChE [4]): strong bivalent inhibitor; also recorded: full inhibition at low nanomolar concentration | Ki (AChE [4]; competitive inhibition fit, acetylthiocholine iodide substrate, read-out: approximate inhibition constant Ki, AChE): 0.32 nM and 0.31 nM | detection of AChE (AChE [5]): could detect AChE | enhancement in fluorescence emission upon addition of AChE (AChE [5]; phosphate buffer 20 mM pH 8): 22 fold

CN1C(=Cc2cc[n+](C)c3ccccc23)Sc2ccccc21 [TO, Thiazole Orange, reference compound]
fluorescence response to addition of dsDNA (FIG. 21e) (dsDNA): strong fluorescence signal | localization of fluorescence in live MDA-MB-231 cells [2]: strong green emission mainly from the nucleus

C=C(CC)C(=O)c1ccc(OCC(=O)O)c(Cl)c1Cl [EA, Ethacrynic acid]
displacement of sensor 14 from GST-M1-1 (reduction in emission) (GST-M1-1 [6]): selective identification

CCCCCCSC[C@H](NC(=O)CC[C@H](N)C(=O)O)C(=O)NCC(=O)O [s-hexyl GSH]
displacement of sensor 14 from GST-M1-1 (reduction in emission) (GST-M1-1 [6]): selective identification

O=C(CCN1C=C/C(=C\c2sc3ccccc3[n+]2CCC(=O)NCCNc2c3c(nc4ccccc24)CCCC3)c2ccccc21)NCCNc1c2c(nc3ccccc13)CCCC2.[I-] [sensor 37]
inhibition of AChE activity (AChE [4]): inhibited the AChE, activity only at 2 μM | detection of AChE (AChE [5]): could detect AChE

C=C(CC)C(=O)c1ccc(OCC(=O)NCCCn2cc(CNC(=O)OCCCN3C=C/C(=C\c4sc5ccccc5[n+]4CCCOC(=O)NCc4cn(CCCNC(=O)COc5ccc(C(=O)C(=C)CC)c(Cl)c5Cl)nn4)c4ccccc43)nn2)c(Cl)c1Cl [sensor 14]
Ki (GST-A2-2 [7]): 20 nM | fluorescence enhancement in the presence of GST-M1-1 (GST-M1-1 [8]; 90 nM GST-M1-1, phosphate buffer 5 mM pH 6.5, recorded immediately): 55 fold | detection of GST-M1-1 in a mixture of GST isozymes (GST-M1-1 [8]; GST-M1-1 20 nM plus seven additional GSTs 20 nM each): selective detection of GST-M1-1 in a mixture of isoforms | Ki (GST-P1-1 [9]): 49 nM | fluorescence detection of GST-A1-1 (GST-A1-1): could not be detected | fluorescence response to addition of dsDNA (FIG. 21e) (dsDNA): negligible fluorescence responses; also recorded: did not exhibit any change in its fluorescence at 540 nm | change in fluorescence upon addition of dsDNA (Example 3) (dsDNA; 500 nM TO derivative, 100-900 nM dsDNA, PBS pH 6.5, emission 530 nm): did not exhibit any change in its fluorescence at 530 nm | Kd (GST-P1-1 [1]): 38 nM | time course of emission in the presence of GST-P1-1 (GST-P1-1 [3]; 90 nM GST P1-1, phosphate buffer 5 mM pH 6.5): slowly increased over a period of 2 hours | fluorescence detection of GST-A2-2 (GST-A2-2 [10]): could not be detected

Source: patent US10557853B2 (priority 2012, dated 2020)
